Literature values as cited in patent US20250241354A1, “ORAL PRODUCTS” (RAI STRATEGIC HOLDINGS, INC., priority 2024, published 2025).

Settings: in words

| SMILES | solubility |
| --- | --- |
| COC(=O)/C=C/C(C)=C\C=C\C(C)=C\C=C\C=C(C)\C=C\C=C(C)\C=C\C(=O)O [bixin, (2E,4E,6E,8E,10E,12E,14E,16Z,18E)-20-methoxy-4,8,13,17-tetramethyl-20-oxoicosa-2,4,6,8,10,12,14,16,18-nonaenoic acid] | soluble in fats and alcohols but insoluble in water |
| CC(/C=C/C=C(C)/C=C/C(=O)O)=C\C=C\C=C(C)\C=C\C=C(C)\C=C\C(=O)O (stereo in doubt) [norbixin, (2E,4E,6E,8E,10E,12E,14E,16E,18E)-4,8,13,17-tetramethylicosa-2,4,6,8,10,12,14,16,18-nonaenedioic acid] | water-soluble |
